From patent US12180198B2, “Ribocil C antibiotics effective for Gram-negative pathogens” (THE BOARD OF TRUSTEES OF THE UNIVERSITY OF ILLINOIS, priority 2018, dated 2024)
≈ marks a conversion by molar mass, not a printed value. Where a name gives a salt, the structure may show the parent alone. Read-outs that look alike come from different tables or passages of the source.

Experiments:
Type in all cases: cell-based
K. pneumoniae BAA-2146 = test: Bioactivity against exemplary strains of bacteria (Table 5A); settings: Strain 4: K. pneumoniae BAA-2146
A. baumannii WO22 = test: MIC, micro-dilution broth method; settings: Acinetobacter baumannii
Experimental: (§1) Compounds were evaluated against a panel of Gram-positive and Gram-negative organisms. MIC values were determined using the micro-dilution broth method as outlined by the Clinical and Laboratory Standards Institute (clsi.org/) and are listed in […]. All experiments were performed in biological triplicate.
(§2) Antimicrobial susceptibility tests. Susceptibility testing was performed in biological triplicate, using the micro-dilution broth method as outlined by the Clinical and Laboratory Standards Institute. Bacteria were cultured with cation-adjusted Muller-Hinton broth (Sigma-Aldrich, Cat #90922) in round-bottom 96-well plates (Corning, Cat #3788). Human serum (pooled gender, 0.2 μm filtered) was purchased from BioIVT (Hicksville, NY).

E. cloacae BAA-2468 = test: MIC, micro-dilution broth method; settings: Enterobacter cloacae, BAA2468
Experimental: as §1, §2

E. cloacae BAA-2341 = test: MIC, micro-dilution broth method; settings: Enterobacter cloacae, BAA2341
Experimental: as §1, §2

K. pneumoniae M14723 = test: MIC, micro-dilution broth method; settings: Klebsiella pneumoniae
Experimental: as §1, §2

A. baumannii M13100 = test: MIC, micro-dilution broth method; settings: Acinetobacter baumannii
Experimental: as §1, §2

E. cloacae ATCC 29893 = test: MIC, micro-dilution broth method; settings: Enterobacter cloacae, ATCC29893
Experimental: as §1, §2

E. coli BAA-2340 = test: MIC, micro-dilution broth method; settings: Escherichia coli, BAA2340
Experimental: as §1, §2

A. baumannii F19521 = test: MIC, micro-dilution broth method; settings: Acinetobacter baumannii
Experimental: as §1, §2

K. pneumoniae BAA-2473 = test: MIC, micro-dilution broth method; settings: Klebsiella pneumoniae, BAA2473
Experimental: as §1, §2

K. pneumoniae AR-0347 = test: MIC, micro-dilution broth method; settings: Klebsiella pneumoniae, AR0347
Experimental: as §1, §2

K. pneumoniae M67297 = test: MIC, micro-dilution broth method; settings: Klebsiella pneumoniae
Experimental: as §1, §2

E. coli ΔtolC JW5503 = test: MIC, micro-dilution broth method; settings: Escherichia coli
Experimental: as §1, §2

K. pneumoniae BAA-2472 = test: MIC, micro-dilution broth method; settings: Klebsiella pneumoniae, BAA2472
Experimental: as §1, §2

A. baumannii W41979 = test: MIC, micro-dilution broth method; settings: Acinetobacter baumannii
Experimental: as §1, §2

S. aureus ATCC 29213 = test: MIC, micro-dilution broth method; settings: for increase in MIC in the presence of serum: S. aureus ATCC 29213, +50% human serum vs none
Experimental: as §1, §2

P. aeruginosa PA01 = test: MIC, micro-dilution broth method; settings: Pseudomonas aeruginosa
Experimental: as §1, §2

E. cloacae S28901.1 = test: MIC, micro-dilution broth method; settings: Enterobacter cloacae
Experimental: as §1, §2

E. coli M66623 = test: MIC, micro-dilution broth method; settings: Escherichia coli
Experimental: as §1, §2

A. baumannii KB343 = test: MIC, micro-dilution broth method; settings: Acinetobacter baumannii
Experimental: as §1, §2

K. pneumoniae M67198 = test: MIC, micro-dilution broth method; settings: Klebsiella pneumoniae
Experimental: as §1, §2

E. coli MG1655 = test: MIC, micro-dilution broth method; settings: Escherichia coli
Experimental: as §1, §2

K. pneumoniae S20595 = test: MIC, micro-dilution broth method; settings: Klebsiella pneumoniae
Experimental: as §1, §2

K. pneumoniae BAA-2470 = test: MIC, micro-dilution broth method; settings: Klebsiella pneumoniae, BAA2470
Experimental: as §1, §2

E. coli AR-0349 = test: MIC, micro-dilution broth method; settings: Escherichia coli, AR0349
Experimental: as §1, §2

E. coli BAA-2469 = test: MIC, micro-dilution broth method; settings: Escherichia coli, BAA2469
Experimental: as §1, §2

A. baumannii KB304 = test: MIC, micro-dilution broth method; settings: Acinetobacter baumannii
Experimental: as §1, §2

E. coli AR-0495 = test: MIC, micro-dilution broth method; settings: Escherichia coli, AR0495
Experimental: as §1, §2

E. coli BAA-2471 = test: MIC, micro-dilution broth method; settings: Escherichia coli, BAA2471
Experimental: as §1, §2

E. coli AR-0493 = test: MIC, micro-dilution broth method; settings: Escherichia coli, AR0493
Experimental: as §1, §2

E. coli ΔrfaC JW3596 = test: MIC, micro-dilution broth method; settings: Escherichia coli
Experimental: as §1, §2

K. pneumoniae S47889 = test: MIC, micro-dilution broth method; settings: Klebsiella pneumoniae
Experimental: as §1, §2

E. coli AR-0346 = test: MIC, micro-dilution broth method; settings: Escherichia coli, AR0346
Experimental: as §1, §2

A. baumannii KB357 = test: MIC, micro-dilution broth method; settings: Acinetobacter baumannii
Experimental: as §1, §2

K. pneumoniae BAA-1705 = test: MIC, micro-dilution broth method; settings: Klebsiella pneumoniae, BAA1705
Experimental: as §1, §2

K. pneumoniae BAA-2342 = test: MIC, micro-dilution broth method; settings: Klebsiella pneumoniae, BAA2342
Experimental: as §1, §2

E. coli F20987 = test: MIC, micro-dilution broth method; settings: Escherichia coli
Experimental: as §1, §2

## Cc1c(CN(C)C(=O)/C=C/c2cnc3c(c2)CC(N)C(=O)N3)oc2ccccc12 (stereo not shown) [Debio-1452-NH3, (E)-3-(6-amino-7-oxo-5,6,7,8-tetrahydro-1,8-naphthyridin-3-yl)-N-methyl-N-((3-methylbenzofuran-2-yl)methyl)acrylamide hydrochloride]
K. pneumoniae BAA-2146
  Bioactivity: 32
A. baumannii WO22; WO22
  MIC: 64 µg/mL
E. cloacae BAA-2468
  MIC: 8 µg/mL
E. cloacae BAA-2341
  MIC: 8 µg/mL
K. pneumoniae M14723; M14723
  MIC: 16 µg/mL
A. baumannii M13100; M13100
  MIC: 16 µg/mL
E. cloacae ATCC 29893
  MIC: 8 µg/mL
E. coli BAA-2340
  MIC: 4 µg/mL
A. baumannii F19521; F19521
  MIC: 4 µg/mL
K. pneumoniae BAA-2473
  MIC: 16 µg/mL
K. pneumoniae AR-0347
  MIC: 16 µg/mL
K. pneumoniae M67297; M67297
  MIC: 32 µg/mL
E. coli ΔtolC JW5503
  MIC: 0.062 µg/mL
K. pneumoniae BAA-2472
  MIC: 16 µg/mL
A. baumannii W41979; W41979
  MIC: 4 µg/mL
S. aureus ATCC 29213
  increase in MIC in the presence of serum: 2 fold
S. aureus ATCC 29213; Staphylococcus aureus, ATCC29213, S. aureus ATCC 29213
  MIC: 0.03 µg/mL
S. aureus ATCC 29213; Staphylococcus aureus, ATCC29213, S. aureus ATCC 29213 (+50% Human serum)
  MIC: 0.062 µg/mL
P. aeruginosa PA01; PA01
  MIC: > 64 µg/mL
E. cloacae S28901.1; S28901.1
  MIC: 16 µg/mL
E. coli M66623; M66623
  MIC: 8 µg/mL
A. baumannii KB343; KB343
  MIC: 64 µg/mL
K. pneumoniae M67198; M67198
  MIC: 32 µg/mL
E. coli MG1655; MG1655
  MIC: 4 µg/mL
K. pneumoniae S20595; S20595
  MIC: 16 µg/mL
K. pneumoniae BAA-2470
  MIC: 4 µg/mL
E. coli AR-0349
  MIC: 2 µg/mL
E. coli BAA-2469
  MIC: 2 µg/mL
A. baumannii KB304; KB304
  MIC: 64 µg/mL
E. coli AR-0495
  MIC: 4 µg/mL
E. coli BAA-2471
  MIC: 4 µg/mL
E. coli AR-0493
  MIC: 4 µg/mL
E. coli ΔrfaC JW3596
  MIC: 0.25 µg/mL
K. pneumoniae S47889; S47889
  MIC: 8 µg/mL
E. coli AR-0346
  MIC: 8 µg/mL
A. baumannii KB357; KB357
  MIC: 64 µg/mL
K. pneumoniae BAA-1705
  MIC: 8 µg/mL
K. pneumoniae BAA-2342
  MIC: 16 µg/mL
E. coli F20987; F20987
  MIC: 4 µg/mL

## Cc1c(CN(C)C(=O)/C=C/c2cnc3c(c2)CCC(=O)N3)oc2ccccc12 [Debio-1452, (E)-N-methyl-N-((3-methylbenzofuran-2-yl)methyl)-3-(7-oxo-5,6,7,8-tetrahydro-1,8-naphthyridin-3-yl)acrylamide, reference compound]
K. pneumoniae BAA-2146
  Bioactivity: >32
A. baumannii WO22; A. baumannii WO22, read-out: MIC
  MIC: > 32 µg/mL
E. cloacae BAA-2468; E. cloacae BAA-2468, read-out: MIC
  MIC: > 32 µg/mL
E. cloacae BAA-2341; E. cloacae BAA-2341, read-out: MIC
  MIC: > 32 µg/mL
K. pneumoniae M14723; K. pneumoniae M14723, read-out: MIC
  MIC: > 32 µg/mL
A. baumannii M13100; A. baumannii M13100, read-out: MIC
  MIC: > 32 µg/mL
E. cloacae ATCC 29893; E. cloacae ATCC 29893, read-out: MIC
  MIC: > 32 µg/mL
E. coli BAA-2340; E. coli BAA-2340, read-out: MIC
  MIC: > 32 µg/mL
A. baumannii F19521; A. baumannii F19521, read-out: MIC
  MIC: > 32 µg/mL
K. pneumoniae BAA-2473; K. pneumoniae BAA-2473, read-out: MIC
  MIC: > 32 µg/mL
K. pneumoniae AR-0347; K. pneumoniae AR-0347, read-out: MIC
  MIC: > 32 µg/mL
K. pneumoniae M67297; K. pneumoniae M67297, read-out: MIC
  MIC: > 32 µg/mL
E. coli ΔtolC JW5503
  MIC: 0.031 µg/mL (≈ 0.0826 µM)
K. pneumoniae BAA-2472; K. pneumoniae BAA-2472, read-out: MIC
  MIC: > 32 µg/mL
A. baumannii W41979; A. baumannii W41979, read-out: MIC
  MIC: > 32 µg/mL
S. aureus ATCC 29213; S. aureus ATCC 29213
  MIC: 0.008 to 0.016 µg/mL
S. aureus ATCC 29213
  increase in MIC in the presence of serum: 8 fold
S. aureus ATCC 29213; Staphylococcus aureus, ATCC29213, S. aureus ATCC 29213 (+50% Human serum), read-out: MIC
  MIC: 0.125 µg/mL (≈ 0.333 µM)
S. aureus ATCC 29213; Staphylococcus aureus, ATCC29213, S. aureus ATCC 29213, read-out: MIC
  MIC: 0.008 µg/mL (≈ 0.0213 µM)
P. aeruginosa PA01; P. aeruginosa PA01, read-out: MIC
  MIC: > 32 µg/mL
E. cloacae S28901.1; E. cloacae S28901.1, read-out: MIC
  MIC: > 32 µg/mL
E. coli M66623; E. coli M66623, read-out: MIC
  MIC: > 32 µg/mL
A. baumannii KB343; A. baumannii KB343, read-out: MIC
  MIC: > 32 µg/mL
K. pneumoniae M67198; K. pneumoniae M67198, read-out: MIC
  MIC: > 32 µg/mL
E. coli MG1655; E. coli MG1655, read-out: MIC
  MIC: > 32 µg/mL
K. pneumoniae S20595; K. pneumoniae S20595, read-out: MIC
  MIC: > 32 µg/mL
K. pneumoniae BAA-2470; K. pneumoniae BAA-2470, read-out: MIC
  MIC: 8 µg/mL (≈ 21.3 µM)
E. coli AR-0349; E. coli AR-0349, read-out: MIC
  MIC: 4 µg/mL (≈ 10.7 µM)
E. coli BAA-2469; E. coli BAA-2469, read-out: MIC
  MIC: 4 µg/mL (≈ 10.7 µM)
A. baumannii KB304; A. baumannii KB304, read-out: MIC
  MIC: > 32 µg/mL
E. coli AR-0495; E. coli AR-0495, read-out: MIC
  MIC: 8 µg/mL (≈ 21.3 µM)
E. coli BAA-2471; E. coli BAA-2471, read-out: MIC
  MIC: 8 µg/mL (≈ 21.3 µM)
E. coli AR-0493; E. coli AR-0493, read-out: MIC
  MIC: > 32 µg/mL
E. coli ΔrfaC JW3596
  MIC: 0.5 µg/mL (≈ 1.33 µM)
K. pneumoniae S47889; K. pneumoniae S47889, read-out: MIC
  MIC: > 32 µg/mL
E. coli AR-0346; E. coli AR-0346, read-out: MIC
  MIC: > 32 µg/mL
A. baumannii KB357; A. baumannii KB357, read-out: MIC
  MIC: > 32 µg/mL
K. pneumoniae BAA-1705; K. pneumoniae BAA-1705, read-out: MIC
  MIC: > 32 µg/mL
K. pneumoniae BAA-2342; K. pneumoniae BAA-2342, read-out: MIC
  MIC: > 32 µg/mL
E. coli F20987; E. coli F20987, read-out: MIC
  MIC: > 32 µg/mL
